Experimental findings from patent US5441563A, “Highly insoluble azole embossing inhibitor and the use thereof” (Armstrong World Industries, Inc., priority 1994, dated 1995) are described below.

≈ marks a conversion by molar mass, not a printed value.

A short description of series [1]: Inhibitor activity (IA), depth of chemical embossing and degree of expansion ranked against BTA-P (Table II). Also on record: key to Inhibitor Activity (IA): 1: Excellent; 2: Very Good; 3: Good; 4: Fair; 5: Poor; None. As to conditions: 10% by weight inhibitor in ink; scale 1 to 5, BTA-P benchmark = 1; 7 mil plastisol, 185 °C, 1.9 min. The method, then: Table II sets forth a number of properties of the examples and comparative examples which were made and tested. Most of these compounds were prepared using the direct milling procedure and then evaluated for inhibitor activity, ghosting and embossing definition.
The inhibited inks (at 10% by weight inhibitor concentration) were printed on 7 mils of an expandable plastisol coated onto a glass mat which was saturated with a non-expandable plastisol. This was done on a flat-bed gravure proof press using a 100 line screen step-wedge gravure plate. The steps ranged from a deep shadow tone to a shallow highlight tone. The inks printed and dried without any tack.
The printed samples were coated with 10 mils of a clear plastisol wearlayer and heated for 1.9±0.1 minutes at an air temperature of 185°±2° C. in a Werner. Mathis oven to fuse and expand the foamable plastisol to about 14 mils (a 2:1 blow ratio). The thickness of the printed coated areas (i.e., restricted area) was measured in mils and compared to the thickness of the expanded unprinted surrounding areas. This difference was recorded as depth of chemical embossing and was used along with the degree of expansion in the inhibited area to access the inhibitor activity (IA).
The inhibitor activity of the BTA-P derivative was established as the benchmark and on a scale of 1 to 5 was given a rating of 1 (five on the scale being less than one mil of overall chemical embossing). This is a subjective ranking where the other compounds were evaluated for inhibitor activity by comparing them to BTA-P, both numerically and visually.

The next series can be described thus: physchem. The class given is physicochemical. To be noted: for Solubility in iPrOH: 1440 min.
A short description of series [2]: Stability of dispersions and ink compositions containing the inhibitor. The class given is physicochemical. The method, then: A cationic dispersion of TTA-P was prepared using a quaternary ammonium salt, stearyl dimethylbenzylammonium chloride, (Maquat SC-18, Mason Chemical Co.), as the stabilizer. The product was first diminutized by grinding the coarse powder (TTA-P) for approximately 18 hours in a standard ball mill using a combination of 12 mm diameter spherical and 6 mm diameter×6 mm high cylindrical balls. Approximately 1/2 of the 1 L ball mill volume was filled for the grinding operation. […] The dispersion was then prepared by adding 2.35 parts Maquat SC-18 (85% active) to 37.65 parts deionized water and stirring until dissolved. A total of 40 parts of TTA-P was then added to the surfactant solution in 5 part increments with stirring, followed by agitation with a sonic dismembrator, (Fisher Model 3000). The sonic probe was inserted directly into the suspension and run on the highest setting for 1-2 minutes. A creamy dispersion resulted initially, with viscosity increasing with increasing solids content. The final suspension was a uniform paste with a concentration of 50% by weight solids.
A blue aqueous inhibitor ink was prepared by adding 0.20 parts of CIB 103 Blue Pigment (sold by Penn Color, Inc.) to 20 parts of CIE 94 Extender (sold by Penn Color, Inc.) and stirring to uniform coloration. Then 6.06 parts of the 50% suspension of TTA-P (prepared in Example 4) was then added to the ink mixture and stirred to uniform coloration.
An anionic dispersion paste of TTA-P was prepared with a polyoxyethylene branched nonylphenyl ether phosphate surfactant, (Rhodofac PE-50, Rhone Poulenc). Diminutization of the compound was performed by milling as described in Example 4. Dispersion of the compound was accomplished using the sonic dismembrator, also described in Example 4. Materials were combined in the proportion: 40 parts of deionized water, 2.06 parts of the surfactant and 40 parts of TTA-P. Materials were added in the listed sequence.
The anionic dispersion of TTA-P (Example 6) was added to an anionic ink formulation of Sicpa Corp. The resultant mixture consisted of 20 parts Sicpa Extender 694556, 0.20 parts Sicpa black ink 674554 and 6.06 parts of the 48.7% dispersion of the compound (Example 6).
A portion of BTA-P, the benzotriazole-piperazine derivative, was stably dispersed with the cationic surfactant stearyldimethylbenzylammonium chloride, (Maquat SC-18, Mason Chemical Co.). The compound was milled and dispersed as in Example 4. The materials were combined in the proportion: 20 parts deionized water, 1.18 parts Maquat SC-18, (85% active), and 33.16 parts BTA-P. The materials were added in the listed sequence. […] The paste was 61% by weight of BTA-P.
The cationic dispersion of BTA-P (Example 8) was added to a cationic ink formulation of Penn Color. The mixture consisted of 20 parts Penn Color Extender CIE 94, 0.20 parts Penn Color CIB 103 blue ink and 4.96 parts of the 61% dispersion of BTA-P (Example 8).
A portion of HTTA-P, the hydrogenated tolyltriazolepiperazine derivative, was colloidally dispersed with the cationic surfactant stearyldimethylbenzylammonium chloride, (Maquat SC-18, Mason Chemical Co.). The milling and dispersing procedures of Example 4 were followed. The materials were combined in the proportion: 21 parts deionized water, 1 part Maquat SC-18, (85% active), and 37 parts HTTA-P. The materials were added in the listed sequence. […] The paste was 62.7% by weight of HTTA-P.
The cationic dispersion of HTTA-P (Example 10) was added to a cationic ink formulation of Penn Color. The mixture consisted of 20 parts Extender CIE 94, 0.20 parts CIB 103 blue ink and 4.83 parts of the 62.7% dispersion of HTTA-P (Example 10).
Hitherto, dispersion of these new inhibitors directly into the ink formulation was not considered. The instability problems of other triazole inhibitors seemed to indicate that a surfactant in addition to that found in the ink and extender was required. […]

Assay in series [3]: as above
The class given is physicochemical. To be noted: for Stability of ink mixture: sonicated.

The mark [4] stands for this setting: cationic aqueous ink with cationic dispersion.
The mark [5] stands for this setting: cationic dispersion paste, Maquat SC-18.

For the molecule “N,N'-bis(tolyltriazol-1-yl methyl) piperazine [TTA-P]”, the “Inhibitor Activity (IA)” value in series [1] stood at 1. Moreover, in the series “physchem”, the “Solubility in iPrOH” value is on record as 0.204 % BY WT. Also, the “Solubility in H2O” value in the series “physchem” (water, 24 h) was 0.031 % BY WT. Further, the “Stability of ink mixture” value was “colloidally stable” in series [2] (anionic aqueous ink with anionic dispersion); “colloidally stable and disperse” in series [2] (setting [4]); “homogenous and stable mixture” in series [3] (direct addition to anionic ink); “homogenous and stable mixture” in series [3] (direct addition to cationic ink). For the same molecule, the Stability of dispersion entry in series [2] (anionic dispersion paste, Rhodofac PE-50) is on record as “stable, homogenous paste”.

Turning to `c1ccc2c(c1)nnn2CN1CCN(Cn2nnc3ccccc32)CC1` [BTA-P, N,N'-bis(benzotriazol-1-ylmethyl) piperazine], in series [1], the “Inhibitor Activity (IA)” value came out at 1. Moreover, in the series “physchem”, the “Solubility in iPrOH” value is 0.007 % BY WT. Moreover, in “physchem” (water), the solubility at 24 h came out at 10 µg/mL (≈ 28.7 µM). Further, the “Stability of ink mixture” value in series [2] (setting [4]) is reported as “colloidally stable”. In addition, the Stability of dispersion entry in series [2] (setting [5]) was “stable homogenous paste”; in series [3] (direct milling in cationic ink extender CIE 94, about 18 hours) it was “homogeneous stable dispersion”.

Turning to “N,N'-Bis(Methylcyclohexyltriazol-1-yl Methyl) Piperazine [HTTA-P]”, in series [1], the “Inhibitor Activity (IA)” value is 1. Further, the “Stability of ink mixture” value in series [2] (setting [4]) is listed as “colloidally stable”. In series [2] (setting [5]), the Stability of dispersion result is on record as “stable homogenous paste”.
